Reference: US20020103136A1, “Conjugates useful in the treatment of prostate cancer” (priority 1998, published 2002)
Read-outs that look alike come from different tables or passages of the source. Square brackets hold non-standard residues; d marks the D form. HCAP = (1S,2R)-(+)-2-hydroxy-3-cyclohexylisopropylamine linker; dAc‑VIN = 4-des-acetylvinblastine; Chg = N[C@H](C(=O)O)C1CCCCC1; Abu = CC[C@H](N)C(=O)O; VIN = not defined here; GABA = NCCCC(=O)O

Key:
[1] = Lability in mouse serum (remark in Table 5); type: in vitro ADME; conditions: remark in the Table 5 cell
[2] = target: T1, enzymatically active free PSA (Homo sapiens, UniProt P07288); test: Recognition/cleavage of oligopeptide-vinca drug conjugates by free PSA (HPLC); type: biochemical; conditions: pH 7.4; for Time to 50% Substrate Cleavage by York PSA: conjugate:PSA molar ratio 100 to 1, acetate salt unless otherwise indicated, n > 1 value is an average
T1 construct: 50% cleavage of the noted oligopeptide-cytotoxic agent conjugates with enzymatically active free PSA; purchased York
T1 sequence (P07288 25-261): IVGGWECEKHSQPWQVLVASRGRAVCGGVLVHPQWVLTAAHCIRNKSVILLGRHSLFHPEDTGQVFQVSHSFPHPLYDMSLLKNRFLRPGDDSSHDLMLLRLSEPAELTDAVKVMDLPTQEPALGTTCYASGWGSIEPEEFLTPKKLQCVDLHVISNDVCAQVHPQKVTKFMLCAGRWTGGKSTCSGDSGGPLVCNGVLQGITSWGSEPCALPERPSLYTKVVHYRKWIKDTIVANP
Method: The conjugates prepared as described in Example 3 were individually dissolved in PSA digestion buffer (50 mM tris(hydroxymethyl)-aminomethane pH7.4, 140 mM NaCl) and the solution added to PSA at a molar ration of 100 to 1. Alternatively, the PSA digestion buffer utilized is 50 mM tris(hydroxymethyl)-aminomethane pH7.4, 140 mM NaCl. The reaction is quenched after various reaction times by the addition of trifluoroacetic acid (TFA) to a final 1% (volume/volume). Alternatively the reaction is quenched with 10 mM ZnCl2. The quenched reaction was analyzed by HPLC on a reversed-phase C18 column using an aqueous 0.1% TFA/acetonitrile gradient. […] Unless otherwise indicated, the acetate salt of the conjugate was tested.

[3] = test system: Colo320DM cells (also designated C320); test: In vitro cytotoxicity, Alamar Blue assay, Colo320DM cells; type: cell-based; conditions: Table 5, value in parentheses, acetate salt unless otherwise indicated, read-out: Cell Kill in 72 HRS EC5O, Colo320DM
Method: (§1) The cytotoxicities of the vinca alkaloid derivatives, prepared as described in Example 1, and the cleaveable oligopeptide-vinca drug conjugates, prepared as described in Examples 2 and 2A, against a line of cells which is known to be killed by unmodified vinca drug was assessed with an Alamar Blue assay. Specifically, cell cultures of LNCap prostate tumor cells, Colo320DM cells (also designated C320), T24 bladder carcinoma cells or T47D breast carcinoma cells in 96 well plates was diluted with medium containing various concentrations of a given conjugate (final plate well volume of 200 μl). The cells were incubated for 3 days at 37° C., 20 μl of Alamar Blue is added to the assay well. The cells were further incubated and the assay plates were read on a EL-310 ELISA reader at the dual wavelengths of 570 and 600 nm at 4 and 7 hours after addition of Alamar Blue. Relative percentage viability at the various concentration of conjugate tested was then calculated versus control (no cytotoxic agent or conjugate) cultures. Unless otherwise indicated, the TFA salt of the cytotoxic agent and the acetate salt of the conjugate were tested.

[4] = test system: LNCap prostate tumor cells; test: In vitro cytotoxicity, Alamar Blue assay, LNCaP cell kill in 72 hrs; type: cell-based; conditions: read-out: LNCaP Cell Kill in 72 HRS EC5O
Method: as §1

[5] = test system: T24 bladder carcinoma cells; test: In vitro cytotoxicity, Alamar Blue assay, T24 cells; type: cell-based; conditions: read-out: Cell Kill in 72 HRS EC5O, T24
Method: as §1

[6] = Table 5, 3 days, acetate salt of conjugate unless otherwise indicated

For `CC[C@]1(O)CC2CN(CCc3c([nH]c4ccccc34)[C@@](C(=O)OC)(c3cc4c(cc3OC)N(C)C3C45CCN4CC=C[C@](CC)(C45)[C@@H](O)[C@]3(O)C(=O)N[C@H](COC(=O)[C@H](CO)NC(=O)[C@H](CCC(N)=O)NC(=O)[C@@H](NC(=O)[C@H](CO)NC(=O)[C@H](CO)NC(=O)[C@@H]3C[C@@H](O)CN3C(C)=O)C3CCCCC3)Cc3ccccc3)C2)C1` (stereo partly shown), the “Stability in mouse serum” value [1] was “labile” and the “Time to 50% Substrate Cleavage by York PSA” value [2] was 25 min.
For “Ac-AbuSSChgQ-SP-(HCAP)-(dAc)-VIN (XSSXQSP; non-natural residues; cyclised or stapled)”, the EC50 [3] was 15.7 µM, the EC50 [4, 6] was 2 µM and the “Time to 50% Substrate Cleavage by York PSA” value [2] was 18 min.
In the case of “Ac-4-trans-L-HypSSChgQSP(HCAP)-VIN (XSSXQSX; non-natural residues; cyclised or stapled)”, the EC50 [3] is reported as 15.6 µM, the EC50 [4, 6] is reported as 5.5 µM and the “Time to 50% Substrate Cleavage by York PSA” value [2] is reported as 8 min.
For “Ac-SSChgQ-SP-(HCAP)-(dAc)-VIN (Ac-SS[Chg]QSP-{HCAP-dAc‑VIN}; not fully specified)”, the EC50 [3] was 29.5 µM, the EC50 [4, 6] was 10.2 µM and the “Time to 50% Substrate Cleavage by York PSA” value [2] was 30 min.
For “Ac-4-trans-L-HypSSChgQS-cyclopropylalaninol-(dAc)-VIN”, the EC50 [3] was 7.5 µM, the EC50 [4, 6] was 1.5 µM and the “Time to 50% Substrate Cleavage by York PSA” value [2] was 45 min.
For “Ac-SChgQSS(PIP)-(HCAP)-dAc-VIN (XXQSSX; non-natural residues; cyclised or stapled)”, the “Time to 50% Substrate Cleavage by York PSA” value [2] was 22 min.
In the case of Ac-AbuSChgQ-SP-(HCAP)-(dAc)-VIN, the EC50 [3] is reported as 15.7 µM, the EC50 [4, 6] is reported as 4.1 µM and the “Time to 50% Substrate Cleavage by York PSA” value [2] is reported as 17 (n = 2) Min.
In the case of “Ac-SSChgQ-SSP-(HCAP)-dAc-VIN (XSXQSSX; not fully specified; non-natural residues; cyclised or stapled)”, the EC50 [3] is reported as 6.3 µM, the EC50 [4, 6] is reported as 2.6 µM and the “Time to 50% Substrate Cleavage by York PSA” value [2] is reported as 8 min.
In the case of “Ac-SChgQSS-gammaAbu-(HCAP)-dAc-VIN (Ac-S[Chg]QSS[GABA]-{HCAP-dAc‑VIN}; not fully specified)”, the EC50 [3] is reported as 4.3 µM, the EC50 [4, 6] is reported as 2.3 µM and the “Time to 50% Substrate Cleavage by York PSA” value [2] is reported as 12 min.
In the case of “Ac-SChgQSS(HCAP)-dAc-VIN (Ac-S[Chg]QSS-{HCAP-dAc‑VIN})”, the EC50 [3] is reported as 1.4 µM, the EC50 [4, 6] is reported as 1.4 µM and the “Time to 50% Substrate Cleavage by York PSA” value [2] is reported as 12 min.
For “Ac-AbuSSChgQ-S-(HCAP)-VIN (Ac-[Abu]SS[Chg]QS-{HCAP-VIN}; reading uncertain)”, the EC50 [3] was 7.8 µM, the EC50 [4, 6] was 6.1 µM and the “Substrate cleavage by York PSA at 1 HOUR” value ([2]; 1 hour, conjugate:PSA 100 to 1) was 28%.
For “4-des-Acetylvinblastine-23-(N-hydroxyacetyl-Abu-Ser-Ser-Chg-Gln-Ser-Pro-HCAP) amide (XSSXQSP; non-natural residues; cyclised or stapled)”, the EC50 [3] was 12.6 µM, the EC50 [4, 6] was 2 µM and the “Time to 50% Substrate Cleavage by York PSA” value [2] was 11 min.
For “Ac-4-trans-L-Hyp-SSChgQ-SS-(HCAP)-(dAc)-VIN (XSSXQSS; non-natural residues; cyclised or stapled)”, the EC50 [3] was 5 µM, the EC50 [4, 6] was 2 µM and the “Time to 50% Substrate Cleavage by York PSA” value [2] was 17 min.
For “Ac-SChgQSS-Sar-(HCAP)-dAc-VIN (XXQSSX; not fully specified; N-methyl; non-natural residues; cyclised or stapled)”, the “Time to 50% Substrate Cleavage by York PSA” value [2] was 13 min.
In the case of `CC[C@]1(O)C[C@@H]2CN(CCc3c([nH]c4ccccc34)[C@@](C(=O)OC)(c3cc4c(cc3OC)N(C)[C@H]3[C@@](O)(C(=O)OC)[C@H](OC(C)=O)[C@]5(CC)C=CCN6CC[C@]43[C@@H]65)C2)C1` [VINBLASTINE, vinblastine], the EC50 ([5]; Homo sapiens, T-24, 72 h, Table 3, value in parentheses) is reported as less than 0.08 µM, the EC50 ([5]; Table 5, value in parentheses) is reported as less than 0.08 µM and the EC50 ([4]; Homo sapiens, 72 h, Table 3, 3 days, TFA salt of cytotoxic agent unless otherwise indicated) is reported as 0.5 µM.
With “4-des-Acetylvinblastine-23-(N-Acetyl-4-trans-L-Hyp-Ser-Ser-Chg-Gln-Ser-HCAP) Amide Acetate Salt” the EC50 [3] was 4.6 µM, the EC50 [4, 6] was 3.4 µM and the “Time to 50% Substrate Cleavage by York PSA” value [2] was 15 min.
With “Ac-4-trans-L-HypSSChgQS-cyclohexylalaninol-(dAc)-VIN (XSSXQSX; non-natural residues; cyclised or stapled)” the EC50 [3] was 2.6 µM, the EC50 [4, 6] was 0.3 µM and the “Time to 50% Substrate Cleavage by York PSA” value [2] was 10 min.
For “Ac-SChgQS-Abu-(HCAP)-VIN (Ac-S[Chg]QS[Abu]-{HCAP-VIN}; reading uncertain)”, the EC50 [3] was 2 µM, the EC50 [4, 6] was 0.8 µM and the “Time to 50% Substrate Cleavage by York PSA” value [2] was 60 min.
In the case of “Ac-SChgQ-SP-(HCAP)-(dAc)-VIN (Ac-S[Chg]QSP-{HCAP-dAc‑VIN})”, the EC50 [3] is reported as 15.7 µM, the EC50 [4, 6] is reported as 7.8 µM and the “Time to 50% Substrate Cleavage by York PSA” value [2] is reported as 13 min.
For “4-des-Acetylvinblastine-23-(N-Acetyl-Ser-Chg-Gln-Ser-Ser-Pro-HCAP) Amide Acetate Salt (SXQSSX; non-natural residues; cyclised or stapled) [Ac-SChgQ-SSP-(HCAP)-VIN]”, the EC50 [3] was 15.7 µM, the EC50 [4, 6] was 7.8 µM and the “Time to 50% Substrate Cleavage by York PSA” value [2] was 8 min.
For “Ac-SChgQ-SS(4-trans-L-Hyp)-(HCAP)-dAc-VIN (XXQSSX; non-natural residues; cyclised or stapled)”, the EC50 [3] was 10.4 µM, the EC50 [4, 6] was 5.9 µM and the “Time to 50% Substrate Cleavage by York PSA” value [2] was 7 min.
